Test results reported in ChEMBL document CHEMBL6134785, “New ATP-competitive inhibitors of E. coli GyrB obtained from the mapping of the hydrophobic floor at the binding site: synthesis and biological evaluation” (RSC Med Chem, 2024).

target: DNA gyrase (Escherichia coli, UniProt P0AES4+P0AES6); assay: Inhibition of Escherichia coli DNA gyrase supercoiling activity incubated for 30 mins in presence of spermidine/ATP by fluorescence based analysis; type: protein-complex assay

Row | SMILES | IC50 [nM]
1 | O=C(O)C(=O)Nc1ccc2nc(N(Cc3ccccc3)C(=O)c3cc(Br)c(Br)[nH]3)sc2c1 | 19
2 | O=C(O)C(=O)Nc1ccc2nc(N(Cc3cccc(C(=O)O)c3)C(=O)c3cc(Br)c(Br)[nH]3)sc2c1 | 96
3 | O=C(O)C(=O)Nc1ccc2c(c1)s/c(=N\C(=O)c1cc(Br)c(Br)[nH]1)n2Cc1ccccc1 | 134
